# Source: patent publication US20250170088A1, “METHOD AND COMPOSITION FOR IMPROVING INTESTINAL MICROFLORA” (NANJING NUTRABUILDING BIO-TECH CO., LTD., priority 2022, published 2025)
# Key:
# Type in all cases: in vivo
# Conditions in all cases: obese mice induced by high-fat diet, 200 mg tributyrin daily, 8 weeks
# Akkermansia muciniphila = test: 16s rRNA sequencing of fecal samples, relative abundance change of Akkermansia muciniphila
# Lactobacillus = test: 16s rRNA sequencing of fecal samples, relative abundance change of Lactobacillus
# Klebsiella = test: 16s rRNA sequencing of fecal samples, relative abundance change of Klebsiella
# Megamonas = test: 16s rRNA sequencing of fecal samples, relative abundance change of Megamonas
# Streptococcus gordonii = test: 16s rRNA sequencing of fecal samples, level of Streptococcus gordonii
smiles,measurement,setting,value
"CCCC(=O)OCC(COC(=O)CCC)OC(=O)CCC [tributyrin, Tributyrin]",increase of the level of Akkermansia muciniphila,Akkermansia muciniphila,119%
same,increase of the level of Lactobacillus,Lactobacillus,101%
same,decrease of the level of Klebsiella,Klebsiella,67%
same,decrease of the level of Megamonas,Megamonas,91%
same,decrease of the level of Streptococcus gordonii,Streptococcus gordonii,about 80%
